Results on three compounds are retold here after PMC2932999 (Journal of Medicinal Chemistry, 2010).

For experiment [1], the system named is mutant NAs (B/Perth E197 and B/Yamagata N197). Type of experiment: biochemical, influenza B virus.
The target in experiment [2] is E197 Perth NA (B/Perth/211/2001 D197E mutant neuraminidase) (Influenza B virus, UniProt Q3S340, D197E). Type of experiment: biochemical, influenza B virus B/Perth/211/2001. As to conditions: read-out: Km for MUNANA.
In experiment [3] the target is N197 Yamagata NA (B/Yamagata/186/05 D197N mutant neuraminidase) (Influenza B virus, UniProt Q38G88, D197N). In kind it is biochemical, influenza B virus B/Yamagata/186/05. The note with it: read-out: Km for MUNANA.

With `CCC(CC)[C@H](NC(C)=O)[C@@H]1[C@H](O)[C@@H](C(=O)O)C[C@H]1NC(=N)N` [compound 3, peramivir], the “slow binding of inhibitor” value in experiment [1] was “loss of slow binding”. Usually Km stands for the concentration of substrate that gives half-maximal velocity. On to `CC(=O)N[C@H]1[C@H]([C@H](O)[C@H](O)CO)OC(Oc2ccc3c(C)cc(=O)oc3c2)(C(=O)O)C[C@@H]1O` (stereo partly shown) [MUNANA, 4-methylumbelliferyl-N-acetylneuraminic acid], for which the Michaelis-Menten constant (Km) in experiment [2] worked out at 12.1 ± 3.7 µM; in experiment [3], 18.8 ± 4.5 µM. As for `O=C(O)C1(F)O[C@H]([C@H](O)[C@H](O)CO)[C@H](O)[C@@H](O)C1F` (stereo partly drawn) [compound 4, 2,3-difluoro-2-keto-3-deoxy-D-glycero-D-galactononulosonic acid], the “resistance of mutant NAs compared to D197 wild type NA” value in experiment [1] is on record as “no resistance”.
